The values that follow come from patent US10899733B2, “Inhibitors of PARPs that catalyze mono-ADP-ribosylation” (OREGON HEALTH & SCIENCE UNIVERSITY, priority 2017, dated 2021).

As a reminder, the IC50 is the concentration that inhibits the measured activity by half.

What all share (format): biochemical
For one test, the target named is T1, PARP10cat (Homo sapiens, UniProt Q53GL7).
T1 sequence (Q53GL7 806-1025 limits assumed): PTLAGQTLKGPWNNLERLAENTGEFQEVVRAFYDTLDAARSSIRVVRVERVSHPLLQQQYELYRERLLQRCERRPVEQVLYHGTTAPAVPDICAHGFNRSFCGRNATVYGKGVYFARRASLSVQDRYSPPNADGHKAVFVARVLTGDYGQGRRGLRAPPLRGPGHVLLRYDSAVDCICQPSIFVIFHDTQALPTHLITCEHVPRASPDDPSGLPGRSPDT
The test is described as follows: Inhibition of PARP10cat-mediated ADP-ribosylation of SRPK2 using NAD+ (100 μM).

For the next test, the target named is PARP6S (Homo sapiens, UniProt Q2NL67). The test is described as follows: PARP panel: ADP-ribosylation of SRPK2 using 6-a-NAD+.
The next test addresses T2, PARP12 (Homo sapiens, UniProt Q9H0J9).
T2 sequence (Q9H0J9 1-701): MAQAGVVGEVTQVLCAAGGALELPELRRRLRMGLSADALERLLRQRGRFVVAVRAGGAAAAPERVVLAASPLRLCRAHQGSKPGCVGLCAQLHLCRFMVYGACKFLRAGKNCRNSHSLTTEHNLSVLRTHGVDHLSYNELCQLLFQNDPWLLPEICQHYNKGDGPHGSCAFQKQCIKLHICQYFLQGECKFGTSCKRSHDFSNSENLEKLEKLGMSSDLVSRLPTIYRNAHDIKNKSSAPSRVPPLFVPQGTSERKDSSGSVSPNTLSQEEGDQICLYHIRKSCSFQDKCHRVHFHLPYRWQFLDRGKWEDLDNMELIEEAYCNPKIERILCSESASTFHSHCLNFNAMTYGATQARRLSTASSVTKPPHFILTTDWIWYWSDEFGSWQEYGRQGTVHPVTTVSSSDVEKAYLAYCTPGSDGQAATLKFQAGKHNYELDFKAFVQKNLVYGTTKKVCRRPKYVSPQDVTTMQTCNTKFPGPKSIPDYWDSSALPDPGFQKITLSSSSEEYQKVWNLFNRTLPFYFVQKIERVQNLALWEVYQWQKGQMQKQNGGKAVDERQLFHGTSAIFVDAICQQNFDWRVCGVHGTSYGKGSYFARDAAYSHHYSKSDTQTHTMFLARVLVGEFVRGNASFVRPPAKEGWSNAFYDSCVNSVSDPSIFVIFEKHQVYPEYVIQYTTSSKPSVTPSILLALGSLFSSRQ
The description is as above.

PARP6S, sequence (Q2NL67 1-518 isoform Q2NL67-2): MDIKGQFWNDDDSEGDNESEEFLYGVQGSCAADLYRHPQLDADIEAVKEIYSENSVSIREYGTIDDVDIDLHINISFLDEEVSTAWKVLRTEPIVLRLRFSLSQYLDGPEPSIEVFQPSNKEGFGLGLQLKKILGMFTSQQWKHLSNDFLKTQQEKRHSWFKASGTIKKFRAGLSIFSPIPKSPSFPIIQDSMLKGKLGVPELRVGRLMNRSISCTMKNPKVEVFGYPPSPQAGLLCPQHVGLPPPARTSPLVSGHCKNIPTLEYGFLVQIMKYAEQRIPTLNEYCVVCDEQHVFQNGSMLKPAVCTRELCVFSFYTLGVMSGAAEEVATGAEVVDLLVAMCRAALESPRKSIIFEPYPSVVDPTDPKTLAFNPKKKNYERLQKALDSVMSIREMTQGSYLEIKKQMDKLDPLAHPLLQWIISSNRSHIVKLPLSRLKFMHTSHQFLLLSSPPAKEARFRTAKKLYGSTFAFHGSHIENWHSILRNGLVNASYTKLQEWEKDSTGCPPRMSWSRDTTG

Consider `Cc1c(-c2ccnc(C(F)(F)F)c2)ccc2c1CCNC2=O` [Compound 22, 5-methyl-6-(2-(trifluoromethyl)pyridin-4-yl)-3,4-dihydroisoquinolin-1(2H)-one], for which the “selectivity for PARP10 over PARP11” value on PARP10cat came to 29 fold. Moreover, the “improvement in selectivity for PARP10 over PARP11 compared to parent compound” value at PARP10cat (12 vs 8, 14 vs 3, 20, 22 vs 16, 23, 24 vs 15) is approximately 2 fold. Further, the “PARP10cat pIC50 ± S.E.M.” value on PARP10cat (ADP-ribosylation of SRPK2, NAD+ 100 μM) was found to be 5.74 ± 0.02. Moreover, on PARP10cat (ratio of IC50 values, PARP11 over PARP10cat), the PARP11/PARP10 amounted to 29. The IC50 at PARP6S (6-a-NAD+) and at PARP12 (6-a-NAD+) was more than 30 µM in each case. For the same compound, the PARP/PARP10 on PARP6S (PARP6S over PARP10cat) and at PARP12 (PARP12 over PARP10cat) was more than 10 in each case.
